Measured values as given in paper PMC10233829 (ACS Omega, 2023).
In brackets after ≈: the same amount, converted by molar mass.

Key:
K. pneumoniae 510 = assay: MIC, twofold microdilution, clinical strain; type: cell-based, Klebsiella pneumoniae; details: Klebsiella pneumoniae, 510; clinical strain, 18 h
[1] = test system: M. tuberculosis Spec. 192; assay: Tuberculostatic activity, Microplate Alamar Blue Assay (MIC); type: cell-based; details: Mycobacterium tuberculosis, MABA, read-out: MIC M. tuberculosis Spec. 192 (sensitive to tuberculostatics)
S. aureus 5595 = assay: MIC, twofold microdilution, clinical strain; type: cell-based; details: Staphylococcus aureus, 18 h
[2] = test system: S. epidermidis ATCC 12228; assay: MIC, twofold microdilution, standard strain; type: cell-based; details: Staphylococcus epidermidis, ATCC12228, 18 h
S. pasteuri KR 4358 = assay: MIC, twofold microdilution, clinical strain; type: cell-based; details: Staphylococcus pasteuri, KR4358, 18 h
[3] = test system: clinical bacterial strains; assay: MIC, clinical isolates as groups of strains; type: cell-based
P. aeruginosa 659 = assay: MIC, twofold microdilution, clinical strain; type: cell-based; details: Pseudomonas aeruginosa, 18 h
E. coli 600 = assay: MIC, twofold microdilution, clinical strain; type: cell-based, Escherichia coli; details: 18 h
S. epidermidis KR4243/1 = assay: MIC, twofold microdilution, clinical strain; type: cell-based; details: Staphylococcus epidermidis, 18 h
M. tuberculosis Spec 210 = assay: microbe, parasite or virus in culture; type: cell-based, Mycobacterium tuberculosis; details: M. tuberculosis Spec. 210
P. aeruginosa ATCC 15442 = assay: MIC, twofold microdilution, standard strain; type: cell-based, Pseudomonas aeruginosa; details: Pseudomonas aeruginosa, ATCC15442; standard strain, 18 h
[4] = test system: P. aeruginosa ATCC 15442 and E. coli ATCC 25922; assay: MIC, standard Gram-negative rods as a panel; type: cell-based; details: P. aeruginosa ATCC 15442, E. coli ATCC 25922; read-out: MIC against standard Gram-negative rods (range over strains)
M. tuberculosis H37Rv = assay: Tuberculostatic activity, Microplate Alamar Blue Assay (MIC); type: cell-based, Mycobacterium tuberculosis; details: Mycobacterium tuberculosis, H37RV; MABA; read-out: MIC M. tuberculosis H37Rv
P. aeruginosa 37 = assay: MIC, twofold microdilution, clinical strain; type: cell-based; details: Pseudomonas aeruginosa, 18 h
S. aureus 180 = assay: MIC, twofold microdilution, clinical strain; type: cell-based; details: Staphylococcus aureus, 18 h
[5] = MTT assay, cytotoxic activity; type: cell-based; details: human, HaCaT cells (immortal keratinocytes); MTT, 72 h, normal cell line; read-out: IC50 HaCaT
Procedure: (§1) Cells were seeded in 6 mL medium in a tissue culture flask (50 mL) in a 37 °C/5% CO2 humidified incubator. […] MTT analysis was performed according to a previous study.[59] Untreated cells were used as controls. Cell absorbance results were inserted into the formula for the relative MTT level (%). It allows to calculate the viability of cells under the influence of the tested compounds. Cell viability was expressed as the percentage of MTT reduction in cells treated with tested compounds compared to the control sample. The relative MTT level was calculated using the formula [100%] = A/B × 100% where A—the test sample absorbance and B—the control sample absorbance.

K. pneumoniae 28 = assay: MIC, twofold microdilution, clinical strain; type: cell-based; details: Klebsiella pneumoniae, 18 h
S. aureus ATCC 29213 = assay: MIC, twofold microdilution, standard strain; type: cell-based; details: Staphylococcus aureus, ATCC29213, 18 h
E. coli ATCC 25922 = assay: MIC, twofold microdilution, standard strain; type: cell-based, Escherichia coli; details: Escherichia coli, ATCC25922; standard strain, 18 h
S. epidermidis 5253 = assay: MIC, twofold microdilution, clinical strain; type: cell-based, Staphylococcus epidermidis; details: Staphylococcus epidermidis, 5253, 18 h
E. coli 951 = assay: MIC, twofold microdilution, clinical strain; type: cell-based; details: Escherichia coli, 18 h
S. aureus NCTC 4163 = assay: MIC, twofold microdilution, standard strain; type: cell-based; details: Staphylococcus aureus, NCTC4163, 18 h
S. aureus T5591 = assay: MIC, twofold microdilution, clinical strain; type: cell-based, Staphylococcus aureus
[6] = test system: S. epidermidis ATCC 35984; assay: MIC, twofold microdilution, standard strain; type: cell-based; details: Staphylococcus epidermidis, ATCC35984, 18 h
E. cloacae 8 = assay: MIC, twofold microdilution, clinical strain; type: cell-based, Escherichia cloacae; details: Enterobacter cloacae, 8; clinical strain, 18 h
E. coli 520 = assay: MIC, twofold microdilution, clinical strain; type: cell-based; details: Escherichia coli, 18 h
S. aureus ATCC 6538 = assay: MIC, twofold microdilution, standard strain; type: cell-based, Staphylococcus aureus; details: Staphylococcus aureus, ATCC6538; standard strain, 18 h
S. aureus T5595 = assay: MIC, twofold microdilution, clinical strain; type: cell-based, Staphylococcus aureus
PC3 cells = assay: MTT assay, cytotoxic activity; type: cell-based, human; details: Homo sapiens, PC-3, 72 h, MTT, 72 h
Procedure: as §1, with “Metastatic prostate cancer (PC3) and human immortal keratinocyte (HaCaT) cell lines were purchased from the American Type Culture Collection (ATCC, Rockville, MD, USA) and cultured in MEM (minimal essential medium, Thermo Sci, USA), RPMI 1640 (Roswell Park Memorial Institute, Biowest SAS, France), and DMEM (Dulbecco’s Modified Eagle’s Medium, Biowest SAS, France). Cells” for “Cells”

S. aureus ATCC 25923 = assay: MIC, twofold microdilution, standard strain; type: cell-based; details: Staphylococcus aureus, ATCC25923, 18 h
S. epidermidis 4341 = assay: MIC, twofold microdilution, clinical strain; type: cell-based; details: Staphylococcus epidermidis, 18 h
[7] = biological target: T1, S. aureus topoisomerase IV (Staphylococcus aureus, UniProt P0C1S7+P0C1U9); assay: Topoisomerase IV decatenation assay; type: biochemical; details: IC50 S. aureus topoisomerase IV, decatenation of kinetoplast DNA
T1 construct: purchased Inspiralis, Norwich, UK

In the case of O=C(O)c1cn(C2CC2)c2cc(N3CCN(C(=O)CCBr)CC3)c(F)cc2c1=O [Compound 9, 7-[4-(3-Bromopropionyl)-piperazin-1-yl]-1-cyclopropyl-6-fluoro-4-oxo-1,4-dihydro-quinoline-3-carboxylic Acid], the MIC (K. pneumoniae 510) is reported as > 25.6 µg/mL, the MIC [1] is reported as 2 µg/mL (≈ 4.29 µM) and the MIC (S. aureus 5595) is reported as 0.5 µg/mL (≈ 1.07 µM). The MIC [2] was 0.2 µg/mL (≈ 0.429 µM), the MIC (S. pasteuri KR 4358) was 0.2 µg/mL (≈ 0.429 µM) and the “times more powerful than CP” value ([3]; S. aureus T5595 and T5591) was 1.25–2.5 times. For the same compound, the MIC ([3]; clinical strains, read-out: MIC against selected E. coli and E. cloacae strains) was 0.1 to 0.8 µg/mL (≈ 0.214 to 1.72 µM), the MIC (P. aeruginosa 659) was > 25.6 µg/mL and the “MIC E. coli 600” value (E. coli 600) was “–0.4 μg/mL”. The MIC (S. epidermidis KR4243/1) was 0.1 µg/mL (≈ 0.214 µM), the “fold more effective than the reference tuberculostatics” value (M. tuberculosis Spec 210) was 8–32 fold and the MIC (P. aeruginosa ATCC 15442) was 12.8 µg/mL (≈ 27.4 µM). For the same compound, the MIC [4] was ≤ 1 µg/mL, the MIC (M. tuberculosis H37Rv) was 2 µg/mL (≈ 4.29 µM) and the MIC (P. aeruginosa 37) was 128 µg/mL (≈ 274 µM). For the same compound, the MIC (S. aureus 180) was 0.5 µg/mL (≈ 1.07 µM), the IC50 at 72 h [5] was > 100 µM and the MIC (K. pneumoniae 28) was > 25.6 µg/mL. For the same compound, the MIC (S. aureus ATCC 29213) was 0.2 µg/mL (≈ 0.429 µM), the MIC (E. coli ATCC 25922) was 0.4 µg/mL (≈ 0.858 µM) and the MIC (S. epidermidis 5253) was 128 µg/mL (≈ 274 µM). For the same compound, the MIC (E. coli 951) was 64 µg/mL (≈ 137 µM), the MIC (S. aureus NCTC 4163) was 0.1 µg/mL (≈ 0.214 µM) and the “MIC S. aureus T5591” value (S. aureus T5591; 18 h) was 0.1 µg/mL (≈ 0.214 µM). It also gave an MIC (S. aureus T5591; Staphylococcus aureus, T5591, 18 h) of 0.1 to 0.2 µg/mL (≈ 0.214 to 0.429 µM), an MIC [6] of 0.2 µg/mL (≈ 0.429 µM) and an MIC (E. cloacae 8) of 2 µg/mL (≈ 4.29 µM). The MIC (E. coli 520) was 0.8 µg/mL (≈ 1.72 µM), the MIC (S. aureus ATCC 6538) was 0.2 µg/mL (≈ 0.429 µM) and the “MIC S. aureus T5595” value (S. aureus T5595; 18 h) was 0.2 µg/mL (≈ 0.429 µM). It also gave an MIC (S. aureus T5595; Staphylococcus aureus, T5595, 18 h) of 0.1 to 0.2 µg/mL (≈ 0.214 to 0.429 µM), an IC50 (PC3 cells) of 69.1 ± 5.8 µM and an MIC (S. aureus ATCC 25923) of 0.2 µg/mL (≈ 0.429 µM). It also gave an MIC (S. epidermidis 4341) of 16 µg/mL (≈ 34.3 µM).

In the case of COc1c(N2C[C@@H]3CCCN[C@@H]3C2)c(F)cc2c(=O)c(C(=O)O)cn(C3CC3)c12 [MXF, moxifloxacin, reference compound], the IC50 [7] is reported as 3.74 µM.
